pIC50: −log10 of the molar value.
Assays:
Test in all cases: cells
COLO-824 = assay type: functional, cell-based, Homo sapiens; details: Homo sapiens, COLO-824
Description: SANGER: Inhibition of human COLO-824 cell growth in a cell viability assay.

COR-L88 = assay type: functional, cell-based, Homo sapiens; details: Homo sapiens, COR-L88;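 further: growth inhibition of COR-L88 cells, read out with a cell viability assay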
Description: SANGER: Inhibition of human COR-L88 cell growth in a cell viability assay.

CTB-1 = assay type: functional, cell-based, Homo sapiens; details: Homo sapiens, CTB-1
Description: SANGER: Inhibition of human CTB-1 cell growth in a cell viability assay.

D-392MG = assay type: functional, cell-based, Homo sapiens; details: Homo sapiens, D-392MG
DMS-114 = assay type: functional, cell-based, Homo sapiens; details: Homo sapiens, DMS-114
EW-11 = assay type: functional, cell-based, Homo sapiens; details: Homo sapiens, EW-11;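 further: growth inhibition of human EW-11 cells, measured with a cell viability assay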
Description: SANGER: Inhibition of human EW-11 cell growth in a cell viability assay.

EW-24 = assay type: functional, cell-based, Homo sapiens; details: Homo sapiens, EW-24;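 further: human EW-24 cancer cell line, growth inhibition read out via a cell viability assay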
Description: SANGER: Inhibition of human EW-24 cell growth in a cell viability assay.

HCC2157 = assay type: functional, cell-based, Homo sapiens; details: Homo sapiens, HCC2157;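 further: growth inhibition of the cancer cell line, read out as cell viability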
Description: SANGER: Inhibition of human HCC2157 cell growth in a cell viability assay.

HOP-62 = assay type: functional, cell-based, Homo sapiens; details: Homo sapiens, HOP-62;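 further: cell growth inhibition determined with a viability assay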
Description: SANGER: Inhibition of human HOP-62 cell growth in a cell viability assay.

IST-MES1 = assay type: functional, cell-based, Homo sapiens; details: Homo sapiens, IST-MES1;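 further: growth inhibition of IST-MES1 cells, measured with a cell viability assay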
Description: SANGER: Inhibition of human IST-MES1 cell growth in a cell viability assay.

KARPAS-299 = assay type: functional, cell-based, Homo sapiens; details: Homo sapiens, KARPAS-299
Description: SANGER: Inhibition of human KARPAS-299 cell growth in a cell viability assay.

KARPAS-45 = assay type: functional, cell-based, Homo sapiens; details: Homo sapiens, KARPAS-45;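 further: inhibition of cell line growth, read out through a viability assay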
Description: SANGER: Inhibition of human KARPAS-45 cell growth in a cell viability assay.

KMOE-2 = assay type: functional, cell-based, Homo sapiens; details: Homo sapiens, KMOE-2;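 further: growth inhibition of human KMOE-2 cells, read out with a cell viability assay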
Description: SANGER: Inhibition of human KMOE-2 cell growth in a cell viability assay.

LAMA-84 = assay type: functional, cell-based, Homo sapiens; details: Homo sapiens, LAMA-84;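 further: growth inhibition of LAMA-84 cells, read out with a cell viability assay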
Description: SANGER: Inhibition of human LAMA-84 cell growth in a cell viability assay.

MEG-01 = assay type: functional, cell-based, Homo sapiens; details: Homo sapiens, MEG-01;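 further: growth inhibition of MEG-01 cells, read out by a cell viability assay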
Description: SANGER: Inhibition of human MEG-01 cell growth in a cell viability assay.

MFH-ino = assay type: functional, cell-based, Homo sapiens; details: Homo sapiens, MFH-ino;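 further: growth inhibition of human MFH-ino cells, read out by a cell viability assay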
Description: SANGER: Inhibition of human MFH-ino cell growth in a cell viability assay.

MHH-NB-11 = assay type: functional, cell-based, Homo sapiens; details: Homo sapiens, MHH-NB-11;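 further: growth inhibition of human MHH-NB-11 cells, read out by a cell viability assay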
Description: SANGER: Inhibition of human MHH-NB-11 cell growth in a cell viability assay.

MN-60 = assay type: functional, cell-based, Homo sapiens; details: Homo sapiens, MN-60;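 further: growth inhibition of the MN-60 cell line, determined with a cell viability assay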
Description: SANGER: Inhibition of human MN-60 cell growth in a cell viability assay.

MPP-89 = assay type: functional, cell-based, Homo sapiens; details: Homo sapiens, MPP-89;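 further: growth inhibition of human MPP-89 cells, read out with a cell viability assay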
Description: SANGER: Inhibition of human MPP-89 cell growth in a cell viability assay.

MSTO-211H = assay type: functional, cell-based, Homo sapiens; details: Homo sapiens, MSTO-211H
Description: SANGER: Inhibition of human MSTO-211H cell growth in a cell viability assay.

MZ1-PC = assay type: functional, cell-based, Homo sapiens; details: Homo sapiens, MZ1-PC;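 further: cell viability assay measuring growth inhibition of human MZ1-PC cells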
Description: SANGER: Inhibition of human MZ1-PC cell growth in a cell viability assay.

NCI-H1355 = assay type: functional, cell-based, Homo sapiens; details: Homo sapiens, NCI-H1355;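 further: growth inhibition of human NCI-H1355 cells, read out by a cell viability assay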
Description: SANGER: Inhibition of human NCI-H1355 cell growth in a cell viability assay.

NCI-H1395 = assay type: functional, cell-based, Homo sapiens; details: Homo sapiens, NCI-H1395;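 further: cell viability assay read-out quantifying reduced proliferation of human NCI-H1395 cells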
Description: SANGER: Inhibition of human NCI-H1395 cell growth in a cell viability assay.

NCI-H2126 = assay type: functional, cell-based, Homo sapiens; details: Homo sapiens, NCI-H2126;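 further: growth inhibition of the cancer cell line, determined with a cell viability readout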
Description: SANGER: Inhibition of human NCI-H2126 cell growth in a cell viability assay.

NCI-H747 = assay type: functional, cell-based, Homo sapiens; details: Homo sapiens, NCI-H747;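 further: growth inhibition of human NCI-H747 cells, read out by a cell viability assay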
Description: SANGER: Inhibition of human NCI-H747 cell growth in a cell viability assay.

NH-12 = assay type: functional, cell-based, Homo sapiens; details: Homo sapiens, NH-12;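 further: growth inhibition of NH-12 cells, read out with a cell viability assay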
Description: SANGER: Inhibition of human NH-12 cell growth in a cell viability assay.

NOMO-1 = assay type: functional, cell-based, Homo sapiens; details: Homo sapiens, NOMO-1;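 further: growth inhibition of human NOMO-1 cells measured by a cell viability assay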
Description: SANGER: Inhibition of human NOMO-1 cell growth in a cell viability assay.

OS-RC-2 = assay type: functional, cell-based, Homo sapiens; details: Homo sapiens, OS-RC-2;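 further: growth inhibition of human OS-RC-2 cells, measured by a cell viability assay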
Description: SANGER: Inhibition of human OS-RC-2 cell growth in a cell viability assay.

P30-OHK = assay type: functional, cell-based, Homo sapiens; details: Homo sapiens, P30-OHK;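 further: growth inhibition of the P30-OHK cell line, read out with a cell viability assay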
Description: SANGER: Inhibition of human P30-OHK cell growth in a cell viability assay.

QIMR-WIL = assay type: functional, cell-based, Homo sapiens; details: Homo sapiens, QIMR-WIL;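 further: growth inhibition of QIMR-WIL cells, read out with a cell viability assay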
Description: SANGER: Inhibition of human QIMR-WIL cell growth in a cell viability assay.

RS4-11 = assay type: functional, cell-based, Homo sapiens; details: Homo sapiens, RS4-11;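 further: growth inhibition of RS4-11 cells, read out by a cell viability assay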
Description: SANGER: Inhibition of human RS4-11 cell growth in a cell viability assay.

SBC-1 = assay type: functional, cell-based, Homo sapiens; details: Homo sapiens, SBC-1;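 further: cell viability assay measuring growth inhibition of the SBC-1 cell line, IC50 being the concentration that halves growth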
Description: SANGER: Inhibition of human SBC-1 cell growth in a cell viability assay.

SK-MEL-1 = assay type: functional, cell-based, Homo sapiens; details: Homo sapiens, SK-MEL-1;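 further: growth inhibition of human SK-MEL-1 cells, read out by a cell viability assay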
Description: SANGER: Inhibition of human SK-MEL-1 cell growth in a cell viability assay.

SK-N-FI = assay type: functional, cell-based, Homo sapiens; details: Homo sapiens, SK-N-FI;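 further: cell viability assay measuring growth inhibition of human SK-N-FI cells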
Description: SANGER: Inhibition of human SK-N-FI cell growth in a cell viability assay.

SK-PN-DW = assay type: functional, cell-based, Homo sapiens; details: Homo sapiens, SK-PN-DW;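 further: growth inhibition measured with a viability assay on these cells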
Description: SANGER: Inhibition of human SK-PN-DW cell growth in a cell viability assay.

8-MG-BA = assay type: functional, cell-based, Homo sapiens; details: Homo sapiens, 8-MG-BA;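 further: growth inhibition of 8-MG-BA cells, read out with a cell viability assay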
Description: SANGER: Inhibition of human 8-MG-BA cell growth in a cell viability assay.

BB49-HNC = assay type: functional, cell-based, Homo sapiens; details: Homo sapiens, BB49-HNC;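 further: cell viability assay read-out, reported as inhibition of BB49-HNC cell growth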
Description: SANGER: Inhibition of human BB49-HNC cell growth in a cell viability assay.

BB65-RCC = assay type: functional, cell-based, Homo sapiens; details: Homo sapiens, BB65-RCC;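 further: growth inhibition of the cell line, measured with a cell viability assay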
Description: SANGER: Inhibition of human BB65-RCC cell growth in a cell viability assay.

BE-13 = assay type: functional, cell-based, Homo sapiens; details: Homo sapiens, BE-13;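 further: growth inhibition of human BE-13 cells, measured with a cell viability assay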
Description: SANGER: Inhibition of human BE-13 cell growth in a cell viability assay.

BT-474 = assay type: functional, cell-based, Homo sapiens; details: Homo sapiens, BT-474
Description: SANGER: Inhibition of human BT-474 cell growth in a cell viability assay.

C2BBe1 = assay type: functional, cell-based, Homo sapiens; details: Homo sapiens, C2BBe1;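 further: growth inhibition of C2BBe1 cells, read out through a viability assay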
Description: SANGER: Inhibition of human C2BBe1 cell growth in a cell viability assay.

TE-12 = assay type: functional, cell-based, Homo sapiens; details: Homo sapiens, TE-12;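 further: growth inhibition of TE-12 cells, read out by a cell viability assay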
Description: SANGER: Inhibition of human TE-12 cell growth in a cell viability assay.

TE-5 = assay type: functional, cell-based, Homo sapiens; details: Homo sapiens, TE-5;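 further: inhibition of cell growth, read out by a cell viability assay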
Description: SANGER: Inhibition of human TE-5 cell growth in a cell viability assay.

U-87 MG = assay type: functional, cell-based, Homo sapiens, U-87MG ATCC; details: Homo sapiens, U-87 MG;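 further: growth inhibition of the cells measured with a viability assay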
Description: SANGER: Inhibition of human U-87-MG cell growth in a cell viability assay.

VA-ES-BJ = assay type: functional, cell-based, Homo sapiens; details: Homo sapiens, VA-ES-BJ;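 further: growth inhibition of the VA-ES-BJ cell line, read out by a cell viability assay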
Description: SANGER: Inhibition of human VA-ES-BJ cell growth in a cell viability assay.

no-10 = assay type: functional, cell-based, Homo sapiens; details: Homo sapiens;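 further: growth inhibition of no-10 cells, read out with a cell viability assay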
Description: SANGER: Inhibition of human no-10 cell growth in a cell viability assay.

A704 = assay type: functional, cell-based, Homo sapiens; details: Homo sapiens, A704;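 further: growth inhibition of human A704 cells, read out with a cell viability assay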
Description: SANGER: Inhibition of human A704 cell growth in a cell viability assay.

Compound: COc1cc(N2CCN(C)CC2)ccc1Nc1ncc2c(n1)N(C)c1ccccc1C(=O)N2C
- pIC50 (COLO-824): < 5.10
- pIC50 (COR-L88): < 5.10
- pIC50 (CTB-1): 5.12
- pIC50 (D-392MG): < 5.10
- pIC50 (DMS-114): < 5.10
- pIC50 (EW-11): < 5.10
- pIC50 (EW-24): < 5.10
- pIC50 (HCC2157): < 5.10
- pIC50 (HOP-62): 5.18
- pIC50 (IST-MES1): < 5.10
- pIC50 (KARPAS-299): < 5.10
- pIC50 (KARPAS-45): 5.40
- pIC50 (KMOE-2): < 5.10
- pIC50 (LAMA-84): < 5.10
- pIC50 (MEG-01): 5.32
- pIC50 (MFH-ino): < 5.10
- pIC50 (MHH-NB-11): < 5.10
- pIC50 (MN-60): < 5.10
- pIC50 (MPP-89): 5.35
- pIC50 (MSTO-211H): < 5.10
- pIC50 (MZ1-PC): < 5.10
- pIC50 (NCI-H1355): < 5.10
- pIC50 (NCI-H1395): < 5.10
- pIC50 (NCI-H2126): < 5.10
- pIC50 (NCI-H747): < 5.10
- pIC50 (NH-12): < 5.10
- pIC50 (NOMO-1): < 5.10
- pIC50 (OS-RC-2): < 5.10
- pIC50 (P30-OHK): < 5.10
- pIC50 (QIMR-WIL): 5.20
- pIC50 (RS4-11): 5.47
- pIC50 (SBC-1): < 5.10
- pIC50 (SK-MEL-1): < 5.10
- pIC50 (SK-N-FI): < 5.10
- pIC50 (SK-PN-DW): < 5.10
- pIC50 (8-MG-BA): < 5.10
- pIC50 (BB49-HNC): < 5.10
- pIC50 (BB65-RCC): < 5.10
- pIC50 (BE-13): < 5.10
- pIC50 (BT-474): < 5.10
- pIC50 (C2BBe1): < 5.10
- pIC50 (TE-12): 5.26
- pIC50 (TE-5): < 5.10
- pIC50 (U-87 MG): < 5.10
- pIC50 (VA-ES-BJ): < 5.10
- pIC50 (no-10): < 5.10

Compound: C#Cc1cccc(Nc2ncnc3cc(OCCOC)c(OCCOC)cc23)c1 [ERLOTINIB]
- pIC50 (COLO-824): < 5.70
- pIC50 (COR-L88): < 5.70
- pIC50 (CTB-1): < 5.70
- pIC50 (D-392MG): < 5.70
- pIC50 (DMS-114): < 5.70
- pIC50 (EW-11): < 5.70
- pIC50 (EW-24): 6.23
- pIC50 (HCC2157): < 5.70
- pIC50 (HOP-62): < 5.70
- pIC50 (IST-MES1): < 5.70
- pIC50 (KARPAS-299): < 5.70
- pIC50 (KMOE-2): < 5.70
- pIC50 (LAMA-84): < 5.70
- pIC50 (MEG-01): < 5.70
- pIC50 (MFH-ino): < 5.70
- pIC50 (MHH-NB-11): < 5.70
- pIC50 (MN-60): < 5.70
- pIC50 (MPP-89): < 5.70
- pIC50 (MZ1-PC): < 5.70
- pIC50 (NCI-H1355): < 5.70
- pIC50 (NCI-H1395): < 5.70
- pIC50 (NCI-H2126): < 5.70
- pIC50 (NCI-H747): < 5.70
- pIC50 (NH-12): < 5.70
- pIC50 (NOMO-1): < 5.70
- pIC50 (OS-RC-2): < 5.70
- pIC50 (P30-OHK): < 5.70
- pIC50 (QIMR-WIL): < 5.70
- pIC50 (RS4-11): < 5.70
- pIC50 (SK-MEL-1): < 5.70
- pIC50 (SK-PN-DW): < 5.70
- pIC50 (8-MG-BA): < 5.70
- pIC50 (BB49-HNC): < 5.70
- pIC50 (BB65-RCC): < 5.70
- pIC50 (BE-13): < 5.70
- pIC50 (BT-474): < 5.70
- pIC50 (C2BBe1): < 5.70
- pIC50 (TE-12): 7.26
- pIC50 (TE-5): < 5.70
- pIC50 (U-87 MG): < 5.70
- pIC50 (VA-ES-BJ): < 5.70
- pIC50 (no-10): < 5.70

Compound: N[C@@H](CSC(c1ccccc1)(c1ccccc1)c1ccccc1)C(=O)O [S-TRITYL-L-CYSTEINE]
- pIC50 (COLO-824): < 5.29
- pIC50 (COR-L88): < 5.29
- pIC50 (CTB-1): 5.49
- pIC50 (DMS-114): 5.49
- pIC50 (EW-11): < 5.29
- pIC50 (EW-24): < 5.29
- pIC50 (HCC2157): < 5.29
- pIC50 (HOP-62): 5.53
- pIC50 (IST-MES1): < 5.29
- pIC50 (KARPAS-299): 5.38
- pIC50 (KARPAS-45): 5.77
- pIC50 (KMOE-2): < 5.29
- pIC50 (LAMA-84): 5.50
- pIC50 (MEG-01): 5.74
- pIC50 (MFH-ino): 6.33
- pIC50 (MHH-NB-11): 5.33
- pIC50 (MN-60): < 5.29
- pIC50 (MPP-89): < 5.29
- pIC50 (MSTO-211H): < 5.29
- pIC50 (MZ1-PC): 5.79
- pIC50 (NCI-H1355): 6.03
- pIC50 (NCI-H1395): < 5.29
- pIC50 (NCI-H2126): 5.67
- pIC50 (NCI-H747): < 5.29
- pIC50 (NH-12): < 5.29
- pIC50 (NOMO-1): < 5.29
- pIC50 (OS-RC-2): < 5.29
- pIC50 (P30-OHK): < 5.29
- pIC50 (QIMR-WIL): < 5.29
- pIC50 (RS4-11): 5.89
- pIC50 (SBC-1): < 5.29
- pIC50 (SK-MEL-1): < 5.29
- pIC50 (SK-N-FI): 5.50
- pIC50 (SK-PN-DW): 5.87
- pIC50 (8-MG-BA): < 5.29
- pIC50 (A704): < 5.29
- pIC50 (BB49-HNC): < 5.29
- pIC50 (BB65-RCC): 5.62
- pIC50 (BE-13): 5.97
- pIC50 (BT-474): < 5.29
- pIC50 (C2BBe1): < 5.29
- pIC50 (TE-12): < 5.29
- pIC50 (TE-5): < 5.29
- pIC50 (U-87 MG): < 5.29
- pIC50 (VA-ES-BJ): 6.09
- pIC50 (no-10): 5.71
